Experimental data taken from the supplement of paper PMC4314810.
± gives the standard deviation of the averaged measurements.

system: MCF7; assay: HRG-induced Akt activation (dPAkt = log2 pAkt/Akt HRG-stimulated minus log2 pAkt/Akt basal) (log2 ratio difference); higher = stronger HRG-induced Akt(T308) phosphorylation; details: miRNA mimic concentration 10 nM; time after transfection 72 h; heregulin 10 ng/ml; stimulation time 1 h
Procedure, shortened: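 Akt activation induced by heregulin was calculated as the difference between stimulated and unstimulated log ratios of phospho-Akt to total Akt, then averaged across replicates. The ratio was taken as log2(pAkt/Akt) from In-Cell Western readings of phospho-Akt(T308) and total Akt on an Odyssey, corrected for column-wise fixation decay. Before reading, MCF7 cells ([…], 96-well plates) transfected with 879 miRNA mimics at 10 nM final via Lipofectamine RNAiMax were, after 72 h, given 10 ng/ml heregulin-beta1 for 1 h or no stimulus, then fixed with 4% PFA. Two biological replicates were run.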

With GUGCAUUGCUGUUGCAUUGC as the sequence, how does the “HRG-induced Akt activation (log2)” value read?
The value was 1.178 ± 0.00052.

UUGUGCUUGAUCUAACCAUGU was tested. Which “HRG-induced Akt activation (log2)” value did it give?
The value was 1.1 ± 0.016.

With CUGUAAUAUAAAUUUAAUUUAUU as the sequence, how does the “HRG-induced Akt activation (log2)” value read?
Its value is 1.42 ± 0.037.

For UGAAGGUCUACUGUGUGCCAGG, which “HRG-induced Akt activation (log2)” value is on record?
Its value is 1.11 ± 0.052.

For GUCCGCUCGGCGGUGGCCCA, which “HRG-induced Akt activation (log2)” value is on record?
The value was 1.34 ± 0.29.

AAAGACAUAGGAUAGAGUCACCUC was tested. Which “HRG-induced Akt activation (log2)” value did it give?
The value was 1.9 ± 0.072.

With UAAGUGCUUCCAUGUUUGAGUGU as the sequence, how does the “HRG-induced Akt activation (log2)” value read?
The value was 1.17 ± 0.15.

With UGUAAACAUCCUUGACUGGAAG as the sequence, how does the “HRG-induced Akt activation (log2)” value read?
The value was 1.12 ± 0.049.

How did the “HRG-induced Akt activation (log2)” value turn out when AAAGUGCAUCUUUUUAGAGGAU was run?
Its value is 0.724 ± 0.058.

With UAUACAAGGGCAGACUCUCUCU as the sequence, how does the “HRG-induced Akt activation (log2)” value read?
The value was 1.48 ± 0.24.

Which “HRG-induced Akt activation (log2)” value does the source give for UAUGGCUUUUCAUUCCUAUGUGA here?
Its value is 1.12 ± 0.29.

UCCUCUUCUCCCUCCUCCCAG was tested. Which “HRG-induced Akt activation (log2)” value did it give?
Its value is 1.77 ± 0.039.

UUUGGUCCCCUUCAACCAGCUG was tested. Which “HRG-induced Akt activation (log2)” value did it give?
The value was 1.54 ± 0.13.

CGAAAACAGCAAUUACCUUUGC was tested. Which “HRG-induced Akt activation (log2)” value did it give?
The value was 1.364 ± 0.0018.

For AAAGGAUUCUGCUGUCGGUCCCACU, which “HRG-induced Akt activation (log2)” value is on record?
Its value is 1.63 ± 0.2.

With AGGCAGUGUAGUUAGCUGAUUGC as the sequence, how does the “HRG-induced Akt activation (log2)” value read?
Its value is 2.22 ± 0.041.

UACUGCAUCAGGAACUGAUUGGA was tested. Which “HRG-induced Akt activation (log2)” value did it give?
The value was 0.878 ± 0.64.

Which “HRG-induced Akt activation (log2)” value does the source give for UGGAUUUCUUUGUGAAUCACCA here?
The value was 1.87 ± 0.11.

How did the “HRG-induced Akt activation (log2)” value turn out when CAUGCCUUGAGUGUAGGACCGU was run?
The value was 1.16 ± 0.11.

With CUCGGCGCGGGGCGCGGGCUCC as the sequence, how does the “HRG-induced Akt activation (log2)” value read?
The value was 1.37 ± 0.015.

AGAGUUGAGUCUGGACGUCCCG was tested. Which “HRG-induced Akt activation (log2)” value did it give?
Its value is 1.98 ± 0.027.

For UGUCUUGCAGGCCGUCAUGCA, which “HRG-induced Akt activation (log2)” value is on record?
Its value is 1.68 ± 0.5.

For AUAAAGCUAGAUAACCGAAAGU, which “HRG-induced Akt activation (log2)” value is on record?
The value was 2.04 ± 0.33.

With UGAGUGUGUGUGUGUGAGUGUGU as the sequence, how does the “HRG-induced Akt activation (log2)” value read?
The value was 2.295 ± 0.0047.

With CCUCCUGCCCUCCUUGCUGU as the sequence, how does the “HRG-induced Akt activation (log2)” value read?
Its value is 2.4 ± 0.096.

With GCUGCGCUUGGAUUUCGUCCCC as the sequence, how does the “HRG-induced Akt activation (log2)” value read?
Its value is 1.62 ± 0.098.

Which “HRG-induced Akt activation (log2)” value does the source give for UGGACUGCCCUGAUCUGGAGA here?
Its value is 1.55 ± 0.66.

For AACACACCUAUUCAAGGAUUCA, which “HRG-induced Akt activation (log2)” value is on record?
Its value is 1.11 ± 0.37.

For UCGAGGAGCUCACAGUCUAGU, which “HRG-induced Akt activation (log2)” value is on record?
The value was 1.71 ± 0.23.

For CAUGGUUCUGUCAAGCACCGCG, which “HRG-induced Akt activation (log2)” value is on record?
The value was 1.34 ± 0.18.

How did the “HRG-induced Akt activation (log2)” value turn out when AGUUCUUCAGUGGCAAGCUUUA was run?
Its value is 0.966 ± 0.66.

Which “HRG-induced Akt activation (log2)” value does the source give for UCUGGCUCCGUGUCUUCACUCCC here?
Its value is 0.873 ± 0.15.

For AAAAUGGUUCCCUUUAGAGUGU, which “HRG-induced Akt activation (log2)” value is on record?
Its value is 1.21 ± 0.31.

How did the “HRG-induced Akt activation (log2)” value turn out when CACUCAGCCUUGAGGGCACUUUC was run?
Its value is 0.664 ± 0.32.

AGGGCUUAGCUGCUUGUGAGCA was tested. Which “HRG-induced Akt activation (log2)” value did it give?
Its value is 1.75 ± 0.56.

With AACCAGCACCCCAACUUUGGAC as the sequence, how does the “HRG-induced Akt activation (log2)” value read?
The value was 2.3 ± 0.14.

Which “HRG-induced Akt activation (log2)” value does the source give for CAACAAAUCACAGUCUGCCAUA here?
The value was 1.2 ± 0.27.

How did the “HRG-induced Akt activation (log2)” value turn out when UUGGCCACAAUGGGUUAGAAC was run?
Its value is 1.02 ± 0.1.

How did the “HRG-induced Akt activation (log2)” value turn out when UUAUCAGAAUCUCCAGGGGUAC was run?
Its value is 2.16 ± 0.2.

How did the “HRG-induced Akt activation (log2)” value turn out when UGUCUGCCCGCAUGCCUGCCUCU was run?
Its value is 2.32 ± 0.13.

CCCGGAGCCAGGAUGCAGCUC was tested. Which “HRG-induced Akt activation (log2)” value did it give?
Its value is 1.79 ± 0.39.

How did the “HRG-induced Akt activation (log2)” value turn out when CAGUGGUUUUACCCUAUGGUAG was run?
Its value is 1.91 ± 0.035.

Which “HRG-induced Akt activation (log2)” value does the source give for UAUUGCACUUGUCCCGGCCUGU here?
The value was 1.3 ± 0.12.

UCCUUCUGCUCCGUCCCCCAG was tested. Which “HRG-induced Akt activation (log2)” value did it give?
Its value is 1.47 ± 0.042.

For CCAGUCCUGUGCCUGCCGCCU, which “HRG-induced Akt activation (log2)” value is on record?
Its value is 1.88 ± 0.41.

Which “HRG-induced Akt activation (log2)” value does the source give for CUCCUGAGCCAUUCUGAGCCUC here?
The value was 1.48 ± 0.25.

Which “HRG-induced Akt activation (log2)” value does the source give for UGGCAGGGAGGCUGGGAGGGG here?
The value was 1.63 ± 0.15.

UAUGUGGGAUGGUAAACCGCUU was tested. Which “HRG-induced Akt activation (log2)” value did it give?
Its value is 2.19 ± 0.34.

UGUAAACAUCCUCGACUGGAAG was tested. Which “HRG-induced Akt activation (log2)” value did it give?
The value was 1.22 ± 0.25.

How did the “HRG-induced Akt activation (log2)” value turn out when GUCCCUCUCCAAAUGUGUCUUG was run?
The value was 0.988 ± 0.27.

AAUAAUACAUGGUUGAUCUUU was tested. Which “HRG-induced Akt activation (log2)” value did it give?
Its value is 1.38 ± 0.066.

For AACUGGCCUACAAAGUCCCAGU, which “HRG-induced Akt activation (log2)” value is on record?
Its value is 2.21 ± 0.14.

With AAGCCCUUACCCCAAAAAGUAU as the sequence, how does the “HRG-induced Akt activation (log2)” value read?
The value was 1.73 ± 0.12.
